In patent US6608176B2, “Taste receptor for umami (monosodium glutamate) taste” (University of Miami, priority 2000, dated 2003):
Like-named read-outs stand apart in the source and are kept apart here.

Key:
brain-mGluR4 [1] = molecular target: T1, brain-mGluR4 (Rattus norvegicus, UniProt P31423); assay: Suppression of forskolin-stimulated cAMP in CHO cells stably expressing brain-mGluR4; assay type: cell-based
T1 construct: Full-length cDNAs for brain-mGluR4 and taste-mGluR4 were reconstructed; expressed in transfected cells
Experimental: (§1) CHO cells were transfected with brain-mGluR4 and taste-mGluR4 constructs and with non-recombinant pcDNA3.1 vector, all in parallel, using a cationic lipid, DMRIE-C (Gibco-BRL). Cells with stably integrated plasmid were selected and maintained in 300 μg per ml G418 starting 24 h after transfection. The medium consisted of Dulbecco's Modified Eagle Medium (D-MEM) supplemented with 10% fetal bovine serum, 2 mM glutamine, 1.7 mM proline and 100 units per ml penicillin-streptomycin^35. Clones were lifted within two weeks and screened for expression by western blot analysis. A single clone for each form was propagated for functional assays. Stably transfected but non-clonal lines of cells from independent transfections with both forms of mGluR4 and non-recombinant vector were also maintained and used in functional assays.
(§2) CHO cells, stably transfected with brain-mGluR4, taste-mGluR4 or non-recombinant pcDNA3.1, were maintained as sub-confluent cultures and refed every two days to minimize chronic stimulation of expressed receptors by glutamate released from dead cells. Cells were plated 20 h before assay in a 96-well microtiter plate at 2×10^4 cells per 200 μl well. Fresh medium was replaced for one hour immediately before assaying receptor function as described^35. Briefly, cells were incubated in Dulbecco's phosphate buffered saline containing 1 mM IBMX for 20 min followed by stimulation for 10 min in 10 μM forskolin and 1 mM IBMX, with or without agonists. Stimulation buffer was rapidly removed, and cells were lysed in 200 μl 0.25% dodecyltrimethyl-ammonium bromide in 50 mM acetate buffer (Amersham, Piscataway, N.J.). Released cAMP in 20% of each lysate was assayed directly using an Amersham EIA-based kit and plotted as mean±s.e. of 3-6 experiments, each performed with triplicate wells of cells.
(§3) In transfected CHO cells, activation of group III mGluRs leads to a suppression of forskolin-stimulated cAMP synthesis^35. […] Thus, two separate lines of CHO cells expressing taste-mGluR4 were examined.

taste-mGluR4 = molecular target: T2, taste-mGluR4 (Rattus norvegicus, UniProt P31423); assay: Suppression of forskolin-stimulated cAMP in CHO cells stably expressing taste-mGluR4; assay type: cell-based
T2 construct: expressed in transfected cells
Experimental: as §1, §2, §3

[2] = tested on: CHO cells transfected with non-recombinant pcDNA3.1 vector; assay: cAMP level in control CHO cells transfected with non-recombinant vector; assay type: cell-based, Chinese hamster; settings: for cAMP level relative to controls: n=9; for change of cAMP concentration in control cells: non-recombinant vector
Experimental: as §1, §2

brain-mGluR4 [3] = molecular target: T1, brain-mGluR4; settings: cited from earlier work
[4] = tested on: glossopharyngeal nerve / sensory afferents; settings: cited from earlier work
chorda tympani nerve = chorda tympani nerve recordings; cited from earlier work
MSG taste detection = settings: rats, behavioral assays; cited from earlier work

T1 sequence (P31423 33-912): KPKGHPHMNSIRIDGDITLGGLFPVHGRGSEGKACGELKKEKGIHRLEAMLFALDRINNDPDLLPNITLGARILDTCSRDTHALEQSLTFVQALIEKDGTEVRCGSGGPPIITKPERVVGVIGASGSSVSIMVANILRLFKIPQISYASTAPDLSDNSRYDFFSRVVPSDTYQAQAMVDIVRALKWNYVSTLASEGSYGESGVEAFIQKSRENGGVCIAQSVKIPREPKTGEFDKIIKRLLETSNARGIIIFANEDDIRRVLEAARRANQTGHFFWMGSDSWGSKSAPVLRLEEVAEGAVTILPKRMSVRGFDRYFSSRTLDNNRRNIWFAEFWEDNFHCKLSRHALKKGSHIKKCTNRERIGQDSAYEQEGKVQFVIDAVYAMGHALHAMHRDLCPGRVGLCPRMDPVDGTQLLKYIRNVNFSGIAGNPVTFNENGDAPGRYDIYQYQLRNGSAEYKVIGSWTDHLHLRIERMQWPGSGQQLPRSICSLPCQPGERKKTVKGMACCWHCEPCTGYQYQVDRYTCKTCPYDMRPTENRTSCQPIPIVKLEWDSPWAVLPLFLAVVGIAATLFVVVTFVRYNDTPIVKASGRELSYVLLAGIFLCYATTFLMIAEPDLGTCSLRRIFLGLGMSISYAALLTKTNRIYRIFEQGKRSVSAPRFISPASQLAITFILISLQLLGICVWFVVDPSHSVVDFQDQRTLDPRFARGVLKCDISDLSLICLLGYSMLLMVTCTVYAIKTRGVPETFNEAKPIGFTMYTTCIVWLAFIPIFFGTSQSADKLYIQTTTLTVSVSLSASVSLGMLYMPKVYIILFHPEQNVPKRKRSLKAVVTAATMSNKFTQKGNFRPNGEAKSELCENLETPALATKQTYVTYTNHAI
T2 sequence (P31423 309-912): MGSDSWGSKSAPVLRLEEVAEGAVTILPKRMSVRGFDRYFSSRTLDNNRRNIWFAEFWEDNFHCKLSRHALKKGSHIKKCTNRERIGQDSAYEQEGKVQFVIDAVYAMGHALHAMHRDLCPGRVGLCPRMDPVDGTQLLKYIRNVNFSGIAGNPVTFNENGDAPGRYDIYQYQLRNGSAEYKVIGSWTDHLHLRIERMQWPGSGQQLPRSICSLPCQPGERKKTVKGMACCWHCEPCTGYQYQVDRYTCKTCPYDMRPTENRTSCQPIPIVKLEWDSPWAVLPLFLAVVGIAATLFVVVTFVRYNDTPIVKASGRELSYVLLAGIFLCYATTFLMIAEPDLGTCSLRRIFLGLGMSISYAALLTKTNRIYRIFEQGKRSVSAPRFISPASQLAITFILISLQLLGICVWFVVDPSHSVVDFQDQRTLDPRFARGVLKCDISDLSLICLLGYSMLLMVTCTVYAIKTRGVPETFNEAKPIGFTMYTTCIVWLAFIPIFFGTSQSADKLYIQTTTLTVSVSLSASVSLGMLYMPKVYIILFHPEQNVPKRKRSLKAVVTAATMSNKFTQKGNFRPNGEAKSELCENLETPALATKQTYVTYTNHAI

N[C@@H](CCC(=O)O)C(=O)O [L-glutamate]
EC50 (brain-mGluR4 [1]; CHO cells stably expressing brain-mGluR4, 10 μM forskolin, 1 mM IBMX): 2 µM | threshold concentration for activating taste-mGluR4 (taste-mGluR4; CHO cells expressing taste-mGluR4): 30 µM | EC50 (taste-mGluR4; CHO cells expressing taste-mGluR4, 10 μM forskolin, 1 mM IBMX, read-out: EC50 for L-glutamate for taste-mGluR4): 280 µM | concentration needed for taste mGluR4 relative to brain-derived neurotransmitter mGluR4 (taste-mGluR4; CHO cells, taste vs brain mGluR4): about 100 fold | cAMP response (taste-mGluR4; at concentrations of 30 μM or below): no response | EC50 (taste-mGluR4; line with expression 2-fold lower than parallel brain-mGluR4 line, read-out: EC50, taste-mGluR4 CHO line): 250 µM | EC50 (taste-mGluR4; line with expression 100-fold lower than parallel brain-mGluR4 line, read-out: EC50, taste-mGluR4 CHO line): 300 µM | cAMP level relative to controls ([2]; 1 mM): 127±16% | cAMP level relative to controls ([2]; 10 mM): 132±19% | EC50 (brain-mGluR4 [3]; mGluR4a, literature ref 35, read-out: EC50 on mGluR4a, earlier reports): 5 µM | taste nerve threshold ([4]; adult mice and rats): 2 to 10 mM | threshold for glutamate taste responses in the glossopharyngeal nerve ([4]; juvenile mice): 100 µM

N[C@@H](CCC(=O)O)C(=O)[O-].[Na+] [L-MSG, monosodium L-glutamate]
detection threshold in recordings from sensory afferents ([4]; adult rodents): 1 to 3 mM | detection threshold in recordings from sensory afferents ([4]; juvenile rodents): 0.1 to 0.3 mM

C[C@](N)(CCP(=O)(O)O)C(=O)O [MAP4]
block of taste nerve responses to glutamate and L-AP4 (chorda tympani nerve): fails to block

N[C@H](CCC(=O)O)C(=O)O [D-glutamate]
cAMP level relative to controls (brain-mGluR4 [1]; 1 MM D-glutamate, brain-mGluR4 cells): 126±17% | cAMP level relative to controls (taste-mGluR4; 1 MM D-glutamate, taste-mGluR4 cells): 99±3% | change of cAMP concentration in control cells [2]: did not alter cAMP concentrations

NC(CCP(=O)(O)O)C(=O)O [L-AP4]
concentration above which the cAMP response saturates (brain-mGluR4 [1]; brain-mGluR4 CHO cells, FIG. 4): above 10 μM | cAMP response (taste-mGluR4; 10 μM L-AP4): no response | cAMP response (taste-mGluR4; 100 μM and 1 mM L-AP4): progressively larger responses | change of cAMP concentration in control cells [2]: did not change | EC50 (brain-mGluR4 [3]; brain mGluR4, literature ref 35, read-out: published EC50): 0.5 to 1 µM | concentration near the MSG taste detection threshold (MSG taste detection): ~100 µM
